Source: paper PMC11225352, “A multicenter, randomized, double-blind, placebo-controlled ascending dose study to evaluate the safety, tolerability, pharmacokinetics (PK) and pharmacodynamic (PD) effects of Posiphen in subjects with early Alzheimer’s Disease” (Alzheimer's Research & Therapy, 2024)
Like-named read-outs stand apart in the source and are kept apart here.

Columns and labels:
Aβ38 = test: SILK analysis of CSF Aβ38 (fractional synthesis rate); assay type: in vivo, human; conditions: after 21 days
Method: (§1) For biochemical analysis to derive data for SILK, ^13C6-leucine was analyzed in plasma and CSF by mass spectrometry, and Aβ peptides in CSF were analyzed by immunoprecipitation-mass spectrometry (IP-MS) as previously described, by C2N Diagnostics (St Louis, MO). CSF levels of sAPPα, sAPPβ, Aβ38, 40 and 42 were analyzed by the ADCS Biomarker Core using Mesoscale Discovery (MSD) electrochemiluminescent assays (Mesoscale Discovery, Rockville, MD). Levels of Posiphen and its N1 and N8 metabolites in plasma and CSF were measured by Charles River Laboratories (Montreal, CA) by high-performance liquid chromatographic mass spectrometry, with use of deuterated Posiphen (procured by Charles River Laboratories) as an internal standard.
(§2) For SILK, the fraction of labeled Aβ for Aβ38, 40, and 42 during 36 h after administration of study drug for each subject was calculated, as described. The FSR measures were calculated by fitting a line to the upslope of the CSF Aβ labeling data. It was assumed that the upslope occurred between hours 6–16 h after the start of confinement. […] The percentage of newly synthesized and degraded Aβ was estimated over 36 h by multiplying the […] concentration of Aβ measured at the start of confinement (i.e. at catheter placement; time = 0) by the percentage of Aβ that contains ^13C6-leucine at each time point. […]

Aβ40 [1] = test: CSF Aβ40 level, screening to day 21 (MSD immunoassay); assay type: in vivo, human; conditions: ANOVA with age and sex as covariates; p = 0.39
Method: as §1
Changes in CSF biomarkers from the screening to confinement (sample at time of placement of catheter) were compared in the treatment and placebo groups by ANOVA, with models that included age, sex and baseline MMSE, and further analysis stratified by treatment dose. A similar approach was taken to analyze changes in MMSE, ADAS-cog and NPI. Data were analyzed using R (version 4.2.2).

Aβ42 = test: SILK analysis of CSF Aβ42 (fractional synthesis rate); assay type: in vivo, human; conditions: after 21 days
Method: as §1, §2

[2] = tested on: sAPPα, sAPPβ and total tau; set-up: method as in PMID 22791904; conditions: four MCI subjects, 60 mg four times per day for 10 days; cited from earlier work
[3] = Plasma pharmacokinetics of Posiphen and its N1 and N8 metabolites (LC-MS, non-compartmental); assay type: in vivo, human; conditions: for Tmax: median (min-max); for AUC(0-t) / Cmax: 60 mg; for AUC(0-t): read-out: AUC0 − 24; for Cmax: read-out: Cmax; for mean levels averaged over 24 h of CSF sampling: after 21–23 days, early AD
Excerpt: For the confinement visit, subjects arrived in the early morning after an overnight fast. Physical and neurological examination, vital signs, and assessment of compliance were completed and blood was drawn for safety laboratory tests. An intravenous line and a second line for repeated blood draw were placed. To sample CSF, the intrathecal space was accessed using a Perifix 18G Touhy Epidural Needle (90 mm), and a Polyamide Epidural Catheter (20G Closed Tip) was inserted and fixed in place by an Anesthesiologist. Participants received the last day’s dosing of study drug or placebo. Initial blood and CSF samples were drawn, intravenous infusion of ^13C6-leucine was started and continued for 9 h, during which time subjects received a low leucine diet. Blood and CSF were sampled every 2 h for 36 h. After 36 h, intravenous lines and the CSF catheter were removed, vital signs were measured, physical exam performed, and blood and CSF were sent for routine laboratory studies. […] If postural headache was present, a blood patch was performed. Once stable, participants underwent a brief exam and vital sign check and were discharged. They received a phone call 24 h after discharge to check on their wellbeing.
as §1
A prespecified Statistical Analysis Plan (SAP) was prepared and finalized before the database lock occurred. For safety and tolerability, frequencies of adverse events, serious adverse events and laboratory abnormalities between the participants across the three groups are compared, using Pearson’s χ [2] or ANOVA, as appropriate. Plasma concentration-time data are analyzed by non-compartmental methods using WinNonlin version 6.2.1 or greater. Calculations are based on the actual sampling times recorded during the study. For PK analysis, only the subjects receiving Posiphen are included.
Noncompartmental pharmacokinetic parameters were estimated using Phoenix WinNonlin v8.3 (Certara, Princeton, NJ). Levels and parameters (Cmax, AUC) of posiphen, n-1 and n-8 metabolites were highly correlated in plasma and CSF. For the BID and TID doses the expected post dose plasma peaks appeared attenuated.

cholinesterase = tested on: cholinesterase; set-up: method as in PMID 11404470; conditions: cited from earlier work
Aβ40 [4] = test: SILK analysis of CSF Aβ40 (fractional synthesis rate, IP-MS); assay type: in vivo, human
Method: From June 5, 2017 to December 31, 2021, we conducted the DISCOVER randomized clinical trial at five participating sites, coordinated by the Alzheimer’s Disease Cooperative Study (ADCS) at UCSD, with funding from the National Institute on Aging and investigational product provided by Annovis, Inc. This study was approved by each participating site’s IRB and was registered on https://www.clinicaltrials.gov/ as NCT02925650. The trial was conducted according to the guidelines of good clinical practice (GCP) and was monitored by the ADCS. A Data Safety Monitoring Board (DSMB) reviewed data for each cohort and for the study overall. […]
For the confinement visit, subjects arrived in the early morning after an overnight fast. […] After 36 h, intravenous lines and the CSF catheter were removed, vital signs were measured, physical exam performed, and blood and CSF were sent for routine laboratory studies. […]
For biochemical analysis to derive data for SILK, ^13C6-leucine was analyzed in plasma and CSF by mass spectrometry, and Aβ peptides in CSF were analyzed by immunoprecipitation-mass spectrometry (IP-MS) as previously described, by C2N Diagnostics (St Louis, MO). CSF levels of sAPPα, sAPPβ, Aβ38, 40 and 42 were analyzed by the ADCS Biomarker Core using Mesoscale Discovery (MSD) electrochemiluminescent assays (Mesoscale Discovery, Rockville, MD). […]

[5] = human, plasma, oral, plasma, 60 mg BID (n = 5), geometric mean (% geometric CV)
[6] = human, plasma, oral, plasma, 60 mg TID (n = 1)
[7] = human, plasma, oral, plasma, 60 mg daily (n = 4), geometric mean (% geometric CV)
[8] = plasma, 60 mg daily (n = 4), geometric mean (% geometric CV)

In the case of `CN1CC[C@]2(C)c3cc(OC(=O)Nc4ccccc4)ccc3N(C)[C@H]12` [Posiphen], the “effect on FSR estimates for Aβ38 vs. placebo” value (Aβ38) is reported as “no significant effect”, the “CSF Aβ40, Treatment difference (Posiphen – placebo)” value (Aβ40 [1]) is reported as -1.4 (1.57) p = 0.39 pg/mL and the “effect on FSR estimates for Aβ42 vs. placebo” value (Aβ42) is reported as “no significant effect”. For the same molecule, the “mean CSF sAPPα, sAPPβ and total tau at 10 days compared to pretreatment” value [2] was “decreased”, the “plasma exposure with more frequent dosing” value ([3]; 60 mg once, twice, three times daily) was “did not increase proportionally” and the half-life ([3]; human, oral, plasma, 60 mg daily (n = 4), geometric mean (% geometric CV)) was 213 min. It also gave a Tmax ([3]; human, oral, plasma, 60 mg daily (n = 4), read-out: Tmax) of 2 h, an AUC(0-t) [3, 5] of 196 ng·h/mL and a Cmax [3, 5] of 30.4 ng/mL. It also gave an AUC(0-t) [3, 6] of 288 ng·h/mL, a Cmax [3, 6] of 51.8 ng/mL and an AUC(0-t) [3, 7] of 212 ng·h/mL. For the same molecule, the Cmax [3, 7] was 52.7 ng/mL, the “mean levels averaged over 24 h of CSF sampling” value (from here on “mean levels averaged over 24 h”) ([3]; plasma, 60 mg BID (n = 5)) was 9.51 ± 5.77 ng/mL and the Tmax ([3]; plasma, 60 mg BID (n = 5)) was 2 (2–12) hr. The “mean levels averaged over 24 h” value ([3]; plasma, 60 mg TID (n = 1)) was 12.01 ng/mL, the Cl/F [3, 8] was 274.04 (17.50) L/hr and the V/F [3, 8] was 1403.1 (59.23) L. For the same molecule, the “mean levels averaged over 24 h” value ([3]; plasma, 60 mg once daily (n = 5)) was 7.16 ± 4.25 ng/mL, the anticholinesterase activity (cholinesterase) was “does not” and the “effect on FSR for CSF Aβ40 vs. placebo” value (Aβ40 [4]; after 21 days, FSR from hours 6–16 and automated method, no dose-dependent effect) was “no significant effect”. The “peak in labeling (SILK curve)” value (Aβ40 [4]; single 180 mg per day subject, previous study maximum 24.7 h) was “about 28 h”.
